# Source: patent US20170044372A1, “CELL TRACKING REAGENTS AND THEIR METHODS OF USE” (LIFE TECHNOLOGIIES CORPORATION, priority 2014, published 2017)
# System: HeLa cells
# Experiment: CYQUANT Direct cytotoxicity / cell viability assay
# Type: cell-based
# Settings: 96 well plate, labeled at 10 μM for 30 mins at 37° C. in LCIS, assayed on days 1, 2 and 3, compared to DMSO alone
# Method: FIG. 2: Lack of cytotoxicity of Compound 10, as measured by the CYQUANT Direct (Thermo Fisher Scientific) method. Fluorescence on the Y-axis is proportional to cell population viability. HeLa cells plated in a 96 well plate were labeled with CELLTRACKER Red, Compound 10, or DMSO in Live Cell Imaging Solution (LCIS) at 10 μM concentration for 30 mins at 37° C. The LCIS was then aspirated from cells and complete media added for an overnight incubation. The following day (Day 1) cells were assayed for cytotoxicity using the CYQUANT Direct assay (Thermo Fisher Scientific).
# A549, HeLa and U-2 OS cells were plated in a 24-well plate at a concentration of 2000 cells/well. Compound 10 was added at a final concentration of 10 μM in Live Cell Imaging Solution (Life Technologies Corporation, Carlsbad, Calif.) and incubated for 30-60 min at 37° C. Cells were washed in dPBS and the cell media was added. Cells were scanned using the scan routine on an EVOS FL Auto microscope (Thermo Fisher Scientific) for 10% of the middle of the well. The same scan routine was used on Days 2, 3 and 4 of growth. Cell viability was assessed using CYQUANT Direct (Thermo Fisher Scientific) using the same scan routine as described above. The results in HeLa cells can be seen in FIGS. 1 and 2.
smiles,measurement,value
CN(C)c1ccc2c(-c3ccc(C(=O)ON4C(=O)CCC4=O)cc3C(=O)O)c3ccc(=[N+](C)C)cc-3oc2c1 [Compound 10],cytotoxicity as measured by the CYQUANT Direct method (fluorescence proportional to cell population viability),no cytotoxicity
